This passage reports Kd results from ChEMBL document CHEMBL3580539, “Discovery of small molecule inhibitors targeting the SUMOSIM interaction using a protein interface consensus approach” (Medchemcomm, 2014).

The target of this test is Small ubiquitin-related modifier 2/3 (SUMO 2/3) (Homo sapiens, UniProt P61956+P55854). Description: Binding affinity to His-tagged SUMO2/3 (unknown origin) expressed in Escherichia coli BL21 (DE3) measured over 120 secs by SPR analysis. A general note: In SPR one partner is held on a chip, and binding of the other changes the refractive index at the surface.
`CC(NS(=O)(=O)c1ccc(Cl)c(Cl)c1)C(=O)NNC(=O)c1ccccc1O` (stereo not drawn): the Kd (in general, the equilibrium constant for the complex coming apart) was 1.9 µM. In other words, the single-digit micromolar range.

For the molecule `COCC(C)n1c(NCc2ccccn2)nc2ccccc2c1=O` (stereo not drawn), the Kd came out at 59 µM.

On to `C=CCNc1nc(NCc2ccccn2)nc2ccccc12`, for which the Kd amounted to 29 µM.
